# Laboratory results taken from ChEMBL document CHEMBL4376848, “Synthesis and discovery of triazolo-pyridazine-6-yl-substituted piperazines as effective anti-diabetic drugs; evaluated over dipeptidyl peptidase-4 inhibition mechanism and insulinotropic activities” (Eur J Med Chem, 2020).
# pIC50: −log10 of the molar value.
# Test system: not listed separately
# Test: Antioxidant activity assessed as inhibition of H2O2 radical scavenging activity incubated for 60 mins by UV-spectrophotometric method relative to control
# Assay type: functional
# Settings: not given
row,SMILES,inhibition
1,Cc1cccc(-c2nnc3ccc(N4CCN(Cc5ccccc5)CC4)nn23)c1,86.2%
2,CC(=O)N1CCN(c2ccc3nnc(-c4cccc(C)c4)n3n2)CC1,78.2%
3,Cc1cccc(-c2nnc3ccc(N4CCN(Cc5ccc(F)cc5)CC4)nn23)c1,91.2%
4,Cc1cccc(-c2nnc3ccc(N4CCN(CCN)CC4)nn23)c1,78.2%
5,Cc1cccc(-c2nnc3ccc(N4CCN(CCOCCO)CC4)nn23)c1,83.2%
6,Cc1cccc(-c2nnc3ccc(N4CCN(C(=O)OC(C)(C)C)C(Cc5ccccc5)C4)nn23)c1 (stereo unspecified),80.1%
7,Cc1cccc(-c2nnc3ccc(N4CCN(C(c5ccccc5)c5ccccc5)CC4)nn23)c1,93.2%
8,Cc1cccc(-c2nnc3ccc(N4CCN(S(C)(=O)=O)CC4)nn23)c1,84.2%
9,COc1ccc(N2CCN(c3ccc4nnc(-c5cccc(C)c5)n4n3)CC2)cc1,75.6%
10,CCOC(=O)N1CCN(c2ccc3nnc(-c4cccc(C)c4)n3n2)CC1,96.8%
11,Cc1cccc(-c2nnc3ccc(N4CCN(Cc5ccccc5)C(C(=O)O)C4)nn23)c1 (stereo unspecified),69.4%
12,Cc1cccc(-c2nnc3ccc(N4CCN(C(=O)c5ccccc5)CC4)nn23)c1,94.1%

# Test system: INS1(832/13)
# Test: Antidiabetic activity in glucose-treated rat INS1(832/13) cells assessed as increase in insulin release at 10 ug/ml in presence of 3 mM glucose measured after 2 hrs by radioimmunoassay (reference value: 52.25 +/- 2.15 %)
# Assay type: functional
# Settings: not given
row,SMILES,inhibition (INH)
1,CCOc1cc(CC(=O)N[C@@H](CC(C)C)c2ccccc2N2CCCCC2)ccc1C(=O)O [REPAGLINIDE],99.05%

# Test system: INS1(832/13)
# Test: Cytotoxicity against rat INS1(832/13) cells assessed as cell viability at 3.5 nM in RPMI medium incubated for over night followed by insulin addition by Alamar Blue assay
# Assay type: cell-based
# Settings: 0.0035 µM
row,SMILES,Activity
1,CCOC(=O)N1CCN(c2ccc3nnc(-c4cccc(C)c4)n3n2)CC1,Toxic
2,Cc1cccc(-c2nnc3ccc(N4CCN(C(=O)c5ccccc5)CC4)nn23)c1,Toxic

# Test system: INS1(832/13)
# Test: cells
# Settings: Rattus norvegicus, INS-1 832/13, 2 h
# Description: Antidiabetic activity in glucose-treated rat INS1(832/13) cells assessed as increase in insulin release in presence of 3 mM glucose measured after 2 hrs by radioimmunoassay
row,SMILES,pIC50
1,Cc1cccc(-c2nnc3ccc(N4CCN(Cc5ccc(F)cc5)CC4)nn23)c1,8.41
2,Cc1cccc(-c2nnc3ccc(N4CCN(C(c5ccccc5)c5ccccc5)CC4)nn23)c1,8.32
3,CCOc1cc(CC(=O)N[C@@H](CC(C)C)c2ccccc2N2CCCCC2)ccc1C(=O)O [REPAGLINIDE],5.90
4,CCOC(=O)N1CCN(c2ccc3nnc(-c4cccc(C)c4)n3n2)CC1,8.55
5,Cc1cccc(-c2nnc3ccc(N4CCN(C(=O)c5ccccc5)CC4)nn23)c1,8.82

# Test system: not listed separately
# Test: Antioxidant activity assessed as inhibition of H2O2 radical scavenging activity incubated for 60 mins by UV-spectrophotometric method
# Assay type: functional
# Settings: not given
row,IC50,SMILES
1,13.4 µg/mL,Cc1cccc(-c2nnc3ccc(N4CCN(Cc5ccccc5)CC4)nn23)c1
2,28.6 µg/mL,CC(=O)N1CCN(c2ccc3nnc(-c4cccc(C)c4)n3n2)CC1
3,25.4 µg/mL,Cc1cccc(-c2nnc3ccc(N4CCN(CCN)CC4)nn23)c1
4,16.8 µg/mL,Cc1cccc(-c2nnc3ccc(N4CCN(CCOCCO)CC4)nn23)c1
5,10.8 µg/mL,Cc1cccc(-c2nnc3ccc(N4CCN(S(C)(=O)=O)CC4)nn23)c1
6,45.9 µg/mL,COc1ccc(N2CCN(c3ccc4nnc(-c5cccc(C)c5)n4n3)CC2)cc1
7,85.5 µg/mL,Cc1cccc(-c2nnc3ccc(N4CCN(Cc5ccccc5)C(C(=O)O)C4)nn23)c1 (stereo unspecified)

# Further lines, the compound ahead of its results:
row,SMILES,IC50
1,Cc1cccc(-c2nnc3ccc(N4CCN(Cc5ccc(F)cc5)CC4)nn23)c1,2 µg/mL
2,Cc1cccc(-c2nnc3ccc(N4CCN(C(=O)OC(C)(C)C)C(Cc5ccccc5)C4)nn23)c1 (stereo unspecified),15.8 µg/mL
3,Cc1cccc(-c2nnc3ccc(N4CCN(C(c5ccccc5)c5ccccc5)CC4)nn23)c1,1.75 µg/mL
4,CCOC(=O)N1CCN(c2ccc3nnc(-c4cccc(C)c4)n3n2)CC1,1 µg/mL
5,O=C1O[C@H]([C@@H](O)CO)C(O)=C1O [ASCORBIC ACID],25.3 µg/mL
6,Cc1cccc(-c2nnc3ccc(N4CCN(C(=O)c5ccccc5)CC4)nn23)c1,2.25 µg/mL

# Test system: INS1(832/13)
# Test: Antidiabetic activity in glucose-treated rat INS1(832/13) cells assessed as increase in insulin release at 1 ug/ml in presence of 3 mM glucose measured after 2 hrs by radioimmunoassay (reference value: 52.25 +/- 2.15 %)
# Assay type: functional
# Settings: not given
row,SMILES,inhibition (INH)
1,CCOc1cc(CC(=O)N[C@@H](CC(C)C)c2ccccc2N2CCCCC2)ccc1C(=O)O [REPAGLINIDE],96.16%

# Test system: INS1(832/13)
# Test: Cytotoxicity against rat INS1(832/13) cells assessed as cell viability upto 3 nM in RPMI medium incubated for over night followed by insulin addition by Alamar Blue assay
# Assay type: cell-based
# Settings: not given
row,SMILES,Activity
1,CCOC(=O)N1CCN(c2ccc3nnc(-c4cccc(C)c4)n3n2)CC1,Non-Toxic
2,Cc1cccc(-c2nnc3ccc(N4CCN(C(=O)c5ccccc5)CC4)nn23)c1,Non-Toxic
